The text below walks through data of ChEMBL document CHEMBL3414567, “Novel hybrid DHPM-fatty acids: synthesis and activity against glioma cell growth in vitro” (Eur J Med Chem, 2015).

The subject of data set [1] is C6. The data set is described as follows: Cytotoxicity against rat C6 cells assessed as reduction of cell viability at 50 uM after 24 hrs by MTT assay. The data set is classed as functional, cell-based. (Formazan colour is commonly taken as a measure of viable cells.)
Data set [2] can be described thus: Cytotoxicity against human U138MG cells assessed as reduction of cell viability at 50 uM after 24 hrs by MTT assay relative to control. The data set is classed as functional, U138-MG.
Data set [3] in a line: Cytotoxicity against Wistar rat organotypic hippocampal slice cultures assessed as neural cell death at 200 uM after 24 hrs by propidium iodide staining-based fluorescence image analysis. Set-up: species or system Hippocampus.
Data set [4] relates to C6. The data set is described as follows: Cytotoxicity against rat C6 cells assessed as reduction of cell viability after 24 hrs by MTT assay. The data set is classed as functional, cell-based.
A further data set has as its system U138-MG. The data set is described as follows: Cytotoxicity against human U138MG cells assessed as reduction of cell viability after 24 hrs by MTT assay. The format is functional, cell-based.
Data set [5] has as its system C6. Put plainly: Cytotoxicity against rat C6 cells assessed as reduction of cell viability at 25 uM after 24 hrs by MTT assay. The format is functional, cell-based.
Data set [6] deals with C6. The data set is described as follows: Cytotoxicity against rat C6 cells assessed as growth inhibition at 150 uM relative to control. The format is functional. As to conditions: read-out: GI.
The nature of data set [7]: Cytotoxicity against human U138MG cells assessed as growth inhibition at 150 uM relative to control. The format is functional. As to conditions: U138-MG, read-out: GI.
Data set [8] can be described thus: Cytotoxicity against human U138MG cells assessed as reduction of cell viability at 10 uM after 24 hrs by MTT assay relative to control. The data set is classed as functional, U138-MG.

Calls of active or inactive are those of the source. The rule behind the calls is not given here.

On to `CCCCCCCC/C=C\CCCCCCCCOC(=O)C1=C(C)NC(=S)NC1c1cccc(O)c1` (stereo unspecified), for which, in the data set on C6 [1], the outcome was Active. The figures for the Activity in data set [2] and in data set [3] were 70% and “Non-toxic”, respectively.

As for `CCCCCCCC/C=C\CCCCCCCCOC(=O)C1=C(C)NC(=O)NC1c1ccccc1` (stereo unspecified), the values for the Activity entry (with C6 [4]; with U138-MG; in data set [3]) were “Dose-dependent effect”, “Dose-dependent effect” and “Non-toxic”, respectively.

As for `CCCCCCCC/C=C\CCCCCCCCOC(=O)C1=C(C)NC(=O)NC1c1cccc(O)c1` (stereo unspecified), the outcome in the data set on C6 [1] and in the data set with C6 [5] was Active. For the same compound, the results for the Activity in [2] and in data set [3] were 70% and “Non-toxic”, respectively.

Take `CCCCCCCCCCCCCCCCCCOC(=O)C1=C(C)NC(=S)NC1c1cccc(O)c1` (stereo unspecified): the outcome with C6 [1] was inactive.

Regarding `CCOC(=O)C1=C(C)NC(=S)NC1c1cccc(O)c1` (stereo unspecified) [MONASTROL], the inhibition of growth at 150 µM (in the data set with C6 [6]; in data set [7]) was 30% throughout.

`CCCCCCCCCCCCCCCCOC(=O)C1=C(C)NC(=O)NC1c1cccc(O)c1` (stereo unspecified): the result with C6 [1] was Active. Also, the results for the Activity in [2], in data set [8] and in data set [3] were 70%, 50% and “Non-toxic”, respectively.

For `CCCCCCCCCCCCCCCCOC(=O)C1=C(C)NC(=S)NC1c1cccc(O)c1` (stereo unspecified), the outcome in the data set with C6 [1] and in the data set on C6 [5] was Active. For the same compound, the Activity is recorded as 70% in data set [2] and “Non-toxic” in data set [3].
